Results taken from PubChem BioAssay AID1963845 (Molecular Pharmacology Branch, DTP, NCI, 2024).

Tested on: 429239-143-T-J1-PDC complex spheroid viability
Experiment: Anticancer human tumor 429239-143-T-J1-PDC patient-derived small cell lung carcinoma cell line growth inhibition [POLQ]
Details: for IC50: curve of first compound; for viability, T/C: stronger effect = lower value
Method in brief: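 Growth inhibition in 3D: complex spheroids (tumor PDC, HUVEC, MSC) treated with POLQ inhibitor combinations; where Cmax unknown, highest tested concentration 10 microM, except SN-38 at 1 microM.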

[1] = second compound 0.0316 µM, first compound 0.0316 µM
[2] = second compound 0.0316 µM, first compound 0.1 µM
[3] = second compound 0.0316 µM, first compound 0.316 µM
[4] = second compound 0.0316 µM, first compound 1 µM
[5] = second compound 0.0316 µM, first compound 3.16 µM
[6] = second compound 0.0316 µM, first compound 10 µM
[7] = second compound 0.1 µM, first compound 0.0316 µM
[8] = second compound 0.1 µM, first compound 0.1 µM
[9] = second compound 0.1 µM, first compound 0.316 µM
[10] = second compound 0.1 µM, first compound 1 µM
[11] = second compound 0.1 µM, first compound 3.16 µM
[12] = second compound 0.1 µM, first compound 10 µM
[13] = second compound 0.316 µM, first compound 0.0316 µM
[14] = second compound 0.316 µM, first compound 0.1 µM
[15] = second compound 0.316 µM, first compound 0.316 µM
[16] = second compound 0.316 µM, first compound 1 µM
[17] = second compound 0.316 µM, first compound 3.16 µM
[18] = second compound 0.316 µM, first compound 10 µM
[19] = second compound 1 µM, first compound 0.0316 µM
[20] = second compound 1 µM, first compound 0.1 µM
[21] = second compound 1 µM, first compound 0.316 µM
[22] = second compound 1 µM, first compound 1 µM
[23] = second compound 1 µM, first compound 3.16 µM
[24] = second compound 1 µM, first compound 10 µM
[25] = second compound 3.16 µM, first compound 0.0316 µM
[26] = second compound 3.16 µM, first compound 0.1 µM
[27] = second compound 3.16 µM, first compound 0.316 µM
[28] = second compound 3.16 µM, first compound 1 µM
[29] = second compound 3.16 µM, first compound 3.16 µM
[30] = second compound 3.16 µM, first compound 10 µM
[31] = second compound 10 µM, first compound 0.0316 µM
[32] = second compound 10 µM, first compound 0.1 µM
[33] = second compound 10 µM, first compound 0.316 µM
[34] = second compound 10 µM, first compound 1 µM
[35] = second compound 10 µM, first compound 3.16 µM
[36] = second compound 10 µM, first compound 10 µM
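Note: luminescence signal used as surrogate measure of viable cells; spheroids exposed to compounds for seven days before readout.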
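Throughout, for viability, T/C: 100% = DMSO vehicle control viability as luminescence relative to vehicle.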

Compound: COc1cccc2c1C(=O)c1c(O)c3c(c(O)c1C2=O)CC(O)(C(=O)CO)CC3OC1CC(N)C(O)C(C)O1 (stereo unspecified) + Nc1ccc(C#CCN(C(=O)Cc2ncc(C(F)(F)F)cc2C(F)(F)F)c2ccc(F)cc2)nn1
- IC50 (second compound 0.0316 µM): 75.7 nM
- IC50 (second compound 0.1 µM): 81.6 nM
- IC50 (second compound 0.316 µM): 109 nM
- IC50 (second compound 1 µM): 73.9 nM
- IC50 (second compound 3.16 µM): 70 nM
- IC50 (second compound 10 µM): 67.9 nM
- viability, T/C [1]: 85.2%
- viability, T/C [2]: 38.8%
- viability, T/C [3]: 5.33%
- viability, T/C [4]: 1.05%
- viability, T/C [5]: 0.09%
- viability, T/C [6]: 0.32%
- viability, T/C [7]: 83.5%
- viability, T/C [8]: 42.8%
- viability, T/C [9]: 7.41%
- viability, T/C [10]: 0.82%
- viability, T/C [11]: 0.06%
- viability, T/C [12]: 0.05%
- viability, T/C [13]: 87.3%
- viability, T/C [14]: 53.6%
- viability, T/C [15]: 6.68%
- viability, T/C [16]: 0.74%
- viability, T/C [17]: 0.05%
- viability, T/C [18]: 0.19%
- viability, T/C [19]: 83.1%
- viability, T/C [20]: 38.2%
- viability, T/C [21]: 5.31%
- viability, T/C [22]: 0.69%
- viability, T/C [23]: 0.1%
- viability, T/C [24]: 0.83%
- viability, T/C [25]: 83.9%
- viability, T/C [26]: 34.8%
- viability, T/C [27]: 5.88%
- viability, T/C [28]: 0.94%
- viability, T/C [29]: 1.4%
- viability, T/C [30]: 0.16%
- viability, T/C [31]: 80.7%
- viability, T/C [32]: 34.4%
- viability, T/C [33]: 5.07%
- viability, T/C [34]: 0.55%
- viability, T/C [35]: 1.2%
- viability, T/C [36]: 0.18%

Compound: CC1COCCN1c1cc(C2(O)CC3CCC(C2)O3)c2cnn(-c3ccn[nH]3)c2n1 (stereo unspecified) + Nc1ccc(C#CCN(C(=O)Cc2ncc(C(F)(F)F)cc2C(F)(F)F)c2ccc(F)cc2)nn1
- IC50 (second compound 0.0316 µM): 273 nM
- IC50 (second compound 0.1 µM): 251 nM
- IC50 (second compound 0.316 µM): 269 nM
- IC50 (second compound 1 µM): 263 nM
- IC50 (second compound 3.16 µM): 232 nM
- IC50 (second compound 10 µM): 187 nM
- viability, T/C [1]: 84.1%
- viability, T/C [2]: 72%
- viability, T/C [3]: 48.2%
- viability, T/C [4]: 7.65%
- viability, T/C [5]: 3.72%
- viability, T/C [6]: 2.1%
- viability, T/C [7]: 83.8%
- viability, T/C [8]: 70.5%
- viability, T/C [9]: 46.3%
- viability, T/C [10]: 7.55%
- viability, T/C [11]: 3.33%
- viability, T/C [12]: 2.36%
- viability, T/C [13]: 83.9%
- viability, T/C [14]: 71.3%
- viability, T/C [15]: 47.9%
- viability, T/C [16]: 7.06%
- viability, T/C [17]: 3.37%
- viability, T/C [18]: 2.33%
- viability, T/C [19]: 78.9%
- viability, T/C [20]: 69.5%
- viability, T/C [21]: 46.8%
- viability, T/C [22]: 6.97%
- viability, T/C [23]: 3.6%
- viability, T/C [24]: 2.11%
- viability, T/C [25]: 81.1%
- viability, T/C [26]: 70.4%
- viability, T/C [27]: 43.1%
- viability, T/C [28]: 7.77%
- viability, T/C [29]: 3.26%
- viability, T/C [30]: 2.52%
- viability, T/C [31]: 83.4%
- viability, T/C [32]: 66.9%
- viability, T/C [33]: 36.4%
- viability, T/C [34]: 6.28%
- viability, T/C [35]: 3.88%
- viability, T/C [36]: 2.51%

Compound: COc1cc(C2c3cc4c(cc3C(OC3OC5COC(C)OC5C(O)C3O)C3COC(=O)C23)OCO4)cc(OC)c1O (stereo unspecified) + Nc1ccc(C#CCN(C(=O)Cc2ncc(C(F)(F)F)cc2C(F)(F)F)c2ccc(F)cc2)nn1
- IC50 (second compound 0.0316 µM): 506 nM
- IC50 (second compound 0.1 µM): 489 nM
- IC50 (second compound 0.316 µM): 514 nM
- IC50 (second compound 1 µM): 463 nM
- IC50 (second compound 3.16 µM): 486 nM
- IC50 (second compound 10 µM): 444 nM
- viability, T/C [1]: 106%
- viability, T/C [2]: 103%
- viability, T/C [3]: 76.4%
- viability, T/C [4]: 11.7%
- viability, T/C [5]: 6.31%
- viability, T/C [6]: 7.42%
- viability, T/C [7]: 103%
- viability, T/C [8]: 99.5%
- viability, T/C [9]: 73%
- viability, T/C [10]: 12%
- viability, T/C [11]: 7.16%
- viability, T/C [12]: 6.74%
- viability, T/C [13]: 104%
- viability, T/C [14]: 105%
- viability, T/C [15]: 77.2%
- viability, T/C [16]: 12.9%
- viability, T/C [17]: 5.81%
- viability, T/C [18]: 7.82%
- viability, T/C [19]: 92.5%
- viability, T/C [20]: 95.3%
- viability, T/C [21]: 68.5%
- viability, T/C [22]: 12.6%
- viability, T/C [23]: 7.75%
- viability, T/C [24]: 8.54%
- viability, T/C [25]: 100%
- viability, T/C [26]: 95.2%
- viability, T/C [27]: 71.3%
- viability, T/C [28]: 14.6%
- viability, T/C [29]: 5.65%
- viability, T/C [30]: 8.11%
- viability, T/C [31]: 100%
- viability, T/C [32]: 96.1%
- viability, T/C [33]: 66.1%
- viability, T/C [34]: 11.5%
- viability, T/C [35]: 5.67%
- viability, T/C [36]: 7.88%
